{"source": "patent US20210378934A1", "about": "“HAIR CARE ACTIVE AGENT” (GIVAUDAN SA, priority 2018, published 2021)", "key": {"[1]": {"test_system": "co-culture of Normal Human Epidermal Keratinocytes (NHEKs) and Normal Human Melanocytes (NHMs)", "test": "Melanin production in NHK/NHM co-culture: comparison (Example 7)", "format": "cell-based", "settings": "5 days; for effect on melanin synthesis / melanin content (in words): taxifolin glucoside 0.13 μg/mL alone, + N-acetyl tyrosine 15 μg/mL or + L-tyrosine 15 μg/mL", "source_text": "The aim of this study was to compare the effect of the hair care active agent of the present invention, which comprises taxifolin glucoside and N-acetyl tyrosine, with those of L-tyrosine (positive reference), of taxifolin glucoside, and of a mixture of taxifolin glucoside and L-tyrosine. The model used for this comparison was a co-culture of Normal Human Epidermal Keratinocytes (NHEKs) and Normal Human Melanocytes (NHMs).\nThe cell culture was realized with primary cells isolated from human skin biopsies.\nNormal Human Keratinocytes (NHKs) were seeded at 60000 cells per well in 6-wells plates pre-coated with collagen I. 4 hours later, Normal Human Melanocytes (NHMs) were seeded at 60 000 cells per well in the same 6-wells plates. The cells were incubated for 48 hours in complete medium (EpiLife® supplemented with HKGS=Human Kerationcyte Growth Supplement).\nAfter 48 hours of culture, the cells were stimulated for 5 days with the following compositions: • L-tyrosine at 450 μg/mL (Sigma) • Taxifolin glucoside at 0.13 μg/mL • Taxifolin glucoside at 0.13 μg/mL+N-acetyl tyrosine at 15 μg/mL (similar to Example 1) • Taxifolin glucoside at 0.13 μg/mL+L-tyrosine at 15 μg/mL (Sigma)\nThe compositions were diluted in a basal medium without supplements (EpiLife®). Every 2 days, the treatments were renewed.\nAfter 5 days of treatment, cells were rinsed off with PBS. Then, in each well, 200 μL of a 0.5N NaOH solution was added. The cell lysates were collected in 1.5 mL microtubes with secure caps. In parallel, a standard range of melanin was prepared (1000 μg/mL). Microtubes of samples and standard range were heated for 1 hour at 80° C. in a dry bath. After the heating, 100 μL of each sample was transferred to a 96-wells plate.\nOptical density was measured at 405 nm to determine the melanin content. […]\nIf it was not significant, the data was evaluated with statistical parametric tests (ANOVA followed by Dunnett's multiple comparisons test).\nIf it was significant, the data was evaluated with statistical non parametric tests (ANOVA of Kruskall-Wallis followed by a Mann-Whitney U test)."}, "[2]": {"test_system": "Anagen VI human hair follicles", "test": "ROS evaluation (DCFH-DA) in micro-dissected hair follicles under cumene hydroperoxide stress (Example 5)", "format": "cell-based", "settings": "50 μM cumene hydroperoxide, 1 hour (oxidative stimulus)", "procedure": "After the selection, the HFs were incubated for 1 hour with the standard solution from Example 1 dissolved in William's E medium. Afterwards, the HFs were cultured for 30 min in the presence of dichlorofluoerescein diacetate (DCFH-DA), a probe that reacts with ROS to become fluorescent. […] At the end of the experimental phase, the HFs were harvested, cryo-fixed and cut at the cryo-micro-tome for consequent image acquisition and image analysis of fluorescence within the sections. A slide for each HF was processed by image acquisition and related analysis (i.e. 12 images for each treatment). […]"}, "[3]": {"test_system": "melanocytes and melanoblasts in Anagen VI human hair follicles", "test": "NKI/beteb melanocyte quantification in micro-dissected hair follicles under oxidative stress (Example 5)", "format": "cell-based", "settings": "cumene hydroperoxide oxidative stress", "description": "Anagen VI human hair follicles (HFs) were dissected from the scalp (Donor). The HFs used were selected after 18 hours of pre-culture. The following parameters were evaluated in the selection procedure: growth rate (>0.18 mm/18 hours), morphology (no signs of dystrophy).\nStarting from day 1, after the selection at day 0, the test compounds were dissolved in the culture medium and the HFs were cultured up to planned endpoints. Twelve hair follicles were used per treatment for each read out parameter. The culture medium was renewed every other day.\nTotal melanocytes quantification was obtained following NKI/beteb-DAPI double immunostaining of the cryo-sections. NKI/beteb antibody (#MON7006-1 by Monosan) recognizes a (pre-) melanosomal antigen present in all melanocytes (i.e. both active melanocytes and melanoblasts).\nOn the immunostained sections, image analysis was performed in order to quantify the number of NKI-beteb positive cells within each hair follicle. The obtained value was normalized relative to the total number of cells of the considered area.\nImage analysis was performed using ImageJ software (NIH, USA).\nAll quantitative data was summarized in terms of the mean score, standard deviation and standard error of the mean for each treatment.\nDifferences between groups were evaluated by One-way ANOVA with permutation test followed by Tukey and t-test with permutation."}, "Solubility": {"test": "Solubility", "format": "physicochemical"}, "melanogenesis": {"test_system": "melanogenesis", "settings": "Sang Mi An et al. Phytother. Res. 22, 1200-1207 (2008); cited from earlier work"}}, "note": "Read-outs that look alike come from different tables or passages of the source."}
{"compound": "Taxifolin glucoside", "values": [{"measurement": "effect on melanin synthesis / melanin content (in words)", "setting": "[1]", "result": "not able to induce synthesis of melanin"}, {"measurement": "effect on melanin synthesis / melanin content (in words)", "setting": "[1]; listed as taxifolin glucoside", "result": "does not have any influence"}]}
{"compound": "cumene hydroperoxide", "values": [{"measurement": "increase of ROS production compared to the untreated condition", "setting": "[2]", "result": "+256%"}, {"measurement": "reduction of the number of melanocytes compared to the untreated condition", "setting": "[3]", "result": 78, "unit": "%"}]}
{"compound": "O=C1c2c(O)cc(O)cc2O[C@H](c2ccc(O)c(O)c2)[C@H]1O", "note": "[taxifolin]", "values": [{"measurement": "solubility", "setting": "Solubility; water with taxifolin glucoside, aqueous with cosolvent or surfactant or cyclodextrin, suitable amounts of taxifolin glucoside, molar ratio about 1:1, read-out: solubility of taxifolin in water in the presence of taxifolin glucoside", "result": "≥ 20000", "unit": "µg/mL"}, {"measurement": "solubility", "setting": "Solubility; water, typical, read-out: solubility of taxifolin in water", "result": "~1000", "unit": "µg/mL"}, {"measurement": "effect on melanogenesis (in words)", "setting": "melanogenesis", "result": "inhibit melanogenesis"}]}
{"compound": "N[C@@H](Cc1ccc(O)cc1)C(=O)O", "note": "[L-tyrosine]", "values": [{"measurement": "melanin content / synthesis of melanin, change compared to the untreated condition", "setting": "[1]; L-tyrosine 450 μg/mL, taxifolin glucoside 0.13 μg/mL + N-acetyl tyrosine 15 μg/mL, p<0.001", "result": "+35%"}]}
